This is an account of results in paper PMC3475447 (Bioscience Reports, 2012).

This test deals with T1, ATPBD of A. fulgidus CopB (Strep-tagged) (Archaeoglobus fulgidus, UniProt O30085).
T1 sequence (O30085 372-636): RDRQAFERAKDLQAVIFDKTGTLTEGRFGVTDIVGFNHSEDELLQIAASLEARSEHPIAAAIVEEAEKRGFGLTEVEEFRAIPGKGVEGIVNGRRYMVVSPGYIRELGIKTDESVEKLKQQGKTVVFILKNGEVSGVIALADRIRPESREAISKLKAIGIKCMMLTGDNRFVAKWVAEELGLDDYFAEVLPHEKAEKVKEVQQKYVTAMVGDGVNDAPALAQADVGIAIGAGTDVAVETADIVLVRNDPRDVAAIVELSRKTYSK
In words: biochemical.

Consider `Nc1ncnc2c1ncn2[C@@H]1O[C@H](COP(=O)(O)OP(=O)(O)OP(=O)(O)O)[C@@H](O)[C@H]1O` [ATP], for which the affinity, expressed as Kd, was 34 ± 2 µM.
